{"source": "PubChem BioAssay AID2060882", "about": "(Molecular Pharmacology Branch, DTP, NCI, 2025)", "tested_on": "898857-211-R-J1-PDC complex spheroids, growth % test/control", "experiment": "Anticancer human tumor 898857-211-R-J1-PDC patient-derived melanoma cell line growth inhibition [RAS]", "details": "for pIC50: curve of first compound; for viability, T/C: stronger effect = lower value", "in_short": "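Tumour cells grown as complex spheroids with HUVEC endothelial cells and mesenchymal stem cells, treated with RAS pathway inhibitor combinations. Each agent spans half-log steps from near clinical Cmax, or 10 microM where Cmax is unknown.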", "key": {"[1]": {"details": "second compound 0.0316 µM, first compound 0.0316 µM"}, "[2]": {"details": "second compound 0.0316 µM, first compound 0.1 µM"}, "[3]": {"details": "second compound 0.0316 µM, first compound 0.316 µM"}, "[4]": {"details": "second compound 0.0316 µM, first compound 1 µM"}, "[5]": {"details": "second compound 0.1 µM, first compound 0.0316 µM"}, "[6]": {"details": "second compound 0.1 µM, first compound 0.1 µM"}, "[7]": {"details": "second compound 0.1 µM, first compound 0.316 µM"}, "[8]": {"details": "second compound 0.1 µM, first compound 1 µM"}, "[9]": {"details": "second compound 0.316 µM, first compound 0.0316 µM"}, "[10]": {"details": "second compound 0.316 µM, first compound 0.1 µM"}, "[11]": {"details": "second compound 0.316 µM, first compound 0.316 µM"}, "[12]": {"details": "second compound 0.316 µM, first compound 1 µM"}, "[13]": {"details": "second compound 1 µM, first compound 0.0316 µM"}, "[14]": {"details": "second compound 1 µM, first compound 0.1 µM"}, "[15]": {"details": "second compound 1 µM, first compound 0.316 µM"}, "[16]": {"details": "second compound 1 µM, first compound 1 µM"}, "[17]": {"details": "second compound 3.16 µM, first compound 0.0316 µM"}, "[18]": {"details": "second compound 3.16 µM, first compound 0.1 µM"}, "[19]": {"details": "second compound 3.16 µM, first compound 0.316 µM"}, "[20]": {"details": "second compound 3.16 µM, first compound 1 µM"}, "[21]": {"details": "second compound 10 µM, first compound 0.0316 µM"}, "[22]": {"details": "second compound 10 µM, first compound 0.1 µM"}, "[23]": {"details": "second compound 10 µM, first compound 0.316 µM"}, "[24]": {"details": "second compound 10 µM, first compound 1 µM"}}, "note": "pIC50: −log10 of the molar value.", "data": [{"compound": "NC1c2ccccc2OC12CCN(c1cnc3c(N4CCCc5ncccc54)n[nH]c3n1)CC2", "note": "(centres undefined) + C#Cc1c(F)ccc2cc(O)cc(-c3ncc4c(N5CC6CCC(C5)N6)nc(OCC56CCCN5CC(F)C6)nc4c3F)c12;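 note: spheroids exposed to compound for seven days before readout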;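 for viability, T/C: 100% = DMSO vehicle control wells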", "values": [{"measurement": "pIC50", "setting": "second compound 0.0316 µM", "value": "< 5.00"}, {"measurement": "pIC50", "setting": "second compound 0.1 µM", "value": "< 5.00"}, {"measurement": "pIC50", "setting": "second compound 0.316 µM", "value": "< 5.00"}, {"measurement": "pIC50", "setting": "second compound 1 µM", "value": "< 5.00"}, {"measurement": "pIC50", "setting": "second compound 3.16 µM", "value": "< 5.00"}, {"measurement": "pIC50", "setting": "second compound 10 µM", "value": 7.45}, {"measurement": "viability, T/C", "setting": "[1]", "value": 95.6, "unit": "%"}, {"measurement": "viability, T/C", "setting": "[2]", "value": 90.5, "unit": "%"}, {"measurement": "viability, T/C", "setting": "[3]", "value": 90.5, "unit": "%"}, {"measurement": "viability, T/C", "setting": "[4]", "value": 88.5, "unit": "%"}, {"measurement": "viability, T/C", "setting": "second compound 0.0316 µM, first compound 3.16 µM", "value": 91.5, "unit": "%"}, {"measurement": "viability, T/C", "setting": "second compound 0.0316 µM, first compound 10 µM", "value": 74.9, "unit": "%"}, {"measurement": "viability, T/C", "setting": "[5]", "value": 91.8, "unit": "%"}, {"measurement": "viability, T/C", "setting": "[6]", "value": 89.3, "unit": "%"}, {"measurement": "viability, T/C", "setting": "[7]", "value": 103, "unit": "%"}, {"measurement": "viability, T/C", "setting": "[8]", "value": 91.7, "unit": "%"}, {"measurement": "viability, T/C", "setting": "second compound 0.1 µM, first compound 3.16 µM", "value": 87.3, "unit": "%"}, {"measurement": "viability, T/C", "setting": "second compound 0.1 µM, first compound 10 µM", "value": 74.4, "unit": "%"}, {"measurement": "viability, T/C", "setting": "[9]", "value": 99.5, "unit": "%"}, {"measurement": "viability, T/C", "setting": "[10]", "value": 98, "unit": "%"}, {"measurement": "viability, T/C", "setting": "[11]", "value": 94, "unit": "%"}, {"measurement": "viability, T/C", "setting": "[12]", "value": 88.1, "unit": "%"}, {"measurement": "viability, T/C", "setting": "second compound 0.316 µM, first compound 3.16 µM", "value": 88.7, "unit": "%"}, {"measurement": "viability, T/C", "setting": "second compound 0.316 µM, first compound 10 µM", "value": 77.1, "unit": "%"}, {"measurement": "viability, T/C", "setting": "[13]", "value": 109, "unit": "%"}, {"measurement": "viability, T/C", "setting": "[14]", "value": 105, "unit": "%"}, {"measurement": "viability, T/C", "setting": "[15]", "value": 100, "unit": "%"}, {"measurement": "viability, T/C", "setting": "[16]", "value": 91.5, "unit": "%"}, {"measurement": "viability, T/C", "setting": "second compound 1 µM, first compound 3.16 µM", "value": 103, "unit": "%"}, {"measurement": "viability, T/C", "setting": "second compound 1 µM, first compound 10 µM", "value": 76, "unit": "%"}, {"measurement": "viability, T/C", "setting": "[17]", "value": 102, "unit": "%"}, {"measurement": "viability, T/C", "setting": "[18]", "value": 93.7, "unit": "%"}, {"measurement": "viability, T/C", "setting": "[19]", "value": 109, "unit": "%"}, {"measurement": "viability, T/C", "setting": "[20]", "value": 99.5, "unit": "%"}, {"measurement": "viability, T/C", "setting": "second compound 3.16 µM, first compound 3.16 µM", "value": 95.9, "unit": "%"}, {"measurement": "viability, T/C", "setting": "second compound 3.16 µM, first compound 10 µM", "value": 50.4, "unit": "%"}, {"measurement": "viability, T/C", "setting": "[21]", "value": 49, "unit": "%"}, {"measurement": "viability, T/C", "setting": "[22]", "value": 48, "unit": "%"}, {"measurement": "viability, T/C", "setting": "[23]", "value": 25.5, "unit": "%"}, {"measurement": "viability, T/C", "setting": "[24]", "value": 22.5, "unit": "%"}, {"measurement": "viability, T/C", "setting": "second compound 10 µM, first compound 3.16 µM", "value": 9.18, "unit": "%"}, {"measurement": "viability, T/C", "setting": "second compound 10 µM, first compound 10 µM", "value": 2.12, "unit": "%"}]}, {"compound": "Nc1ccn(C2OC(CO)C(O)C2(F)F)c(=O)n1", "note": "(centres undefined) + C#Cc1c(F)ccc2cc(O)cc(-c3ncc4c(N5CC6CCC(C5)N6)nc(OCC56CCCN5CC(F)C6)nc4c3F)c12", "values": [{"measurement": "pIC50", "setting": "second compound 0.0316 µM", "value": 8.14}, {"measurement": "pIC50", "setting": "second compound 0.1 µM", "value": 8.12}, {"measurement": "pIC50", "setting": "second compound 0.316 µM", "value": 8.10}, {"measurement": "pIC50", "setting": "second compound 1 µM", "value": 8.15}, {"measurement": "pIC50", "setting": "second compound 3.16 µM", "value": 8.14}, {"measurement": "pIC50", "setting": "second compound 10 µM", "value": "> 8.50"}, {"measurement": "viability, T/C", "setting": "second compound 0.0316 µM, first compound 0.00316 µM", "value": 105, "unit": "%"}, {"measurement": "viability, T/C", "setting": "second compound 0.0316 µM, first compound 0.01 µM", "value": 29.7, "unit": "%"}, {"measurement": "viability, T/C", "setting": "[1]", "value": 6.72, "unit": "%"}, {"measurement": "viability, T/C", "setting": "[2]", "value": 5, "unit": "%"}, {"measurement": "viability, T/C", "setting": "[3]", "value": 5.45, "unit": "%"}, {"measurement": "viability, T/C", "setting": "[4]", "value": 5.38, "unit": "%"}, {"measurement": "viability, T/C", "setting": "second compound 0.1 µM, first compound 0.00316 µM", "value": 92.7, "unit": "%"}, {"measurement": "viability, T/C", "setting": "second compound 0.1 µM, first compound 0.01 µM", "value": 36, "unit": "%"}, {"measurement": "viability, T/C", "setting": "[5]", "value": 7.32, "unit": "%"}, {"measurement": "viability, T/C", "setting": "[6]", "value": 5.55, "unit": "%"}, {"measurement": "viability, T/C", "setting": "[7]", "value": 5.77, "unit": "%"}, {"measurement": "viability, T/C", "setting": "[8]", "value": 5.83, "unit": "%"}, {"measurement": "viability, T/C", "setting": "second compound 0.316 µM, first compound 0.00316 µM", "value": 97.4, "unit": "%"}, {"measurement": "viability, T/C", "setting": "second compound 0.316 µM, first compound 0.01 µM", "value": 37.7, "unit": "%"}, {"measurement": "viability, T/C", "setting": "[9]", "value": 7.43, "unit": "%"}, {"measurement": "viability, T/C", "setting": "[10]", "value": 4.86, "unit": "%"}, {"measurement": "viability, T/C", "setting": "[11]", "value": 5.48, "unit": "%"}, {"measurement": "viability, T/C", "setting": "[12]", "value": 5.75, "unit": "%"}, {"measurement": "viability, T/C", "setting": "second compound 1 µM, first compound 0.00316 µM", "value": 91.7, "unit": "%"}, {"measurement": "viability, T/C", "setting": "second compound 1 µM, first compound 0.01 µM", "value": 32.4, "unit": "%"}, {"measurement": "viability, T/C", "setting": "[13]", "value": 8.35, "unit": "%"}, {"measurement": "viability, T/C", "setting": "[14]", "value": 5.57, "unit": "%"}, {"measurement": "viability, T/C", "setting": "[15]", "value": 4.9, "unit": "%"}, {"measurement": "viability, T/C", "setting": "[16]", "value": 5.48, "unit": "%"}, {"measurement": "viability, T/C", "setting": "second compound 3.16 µM, first compound 0.00316 µM", "value": 99, "unit": "%"}, {"measurement": "viability, T/C", "setting": "second compound 3.16 µM, first compound 0.01 µM", "value": 30.7, "unit": "%"}, {"measurement": "viability, T/C", "setting": "[17]", "value": 7.65, "unit": "%"}, {"measurement": "viability, T/C", "setting": "[18]", "value": 6.3, "unit": "%"}, {"measurement": "viability, T/C", "setting": "[19]", "value": 5.81, "unit": "%"}, {"measurement": "viability, T/C", "setting": "[20]", "value": 5.63, "unit": "%"}, {"measurement": "viability, T/C", "setting": "second compound 10 µM, first compound 0.00316 µM", "value": 46.4, "unit": "%"}, {"measurement": "viability, T/C", "setting": "second compound 10 µM, first compound 0.01 µM", "value": 25.8, "unit": "%"}, {"measurement": "viability, T/C", "setting": "[21]", "value": 7.48, "unit": "%"}, {"measurement": "viability, T/C", "setting": "[22]", "value": 6.16, "unit": "%"}, {"measurement": "viability, T/C", "setting": "[23]", "value": 6.42, "unit": "%"}, {"measurement": "viability, T/C", "setting": "[24]", "value": 5.33, "unit": "%"}]}]}
